Source: ChEMBL document CHEMBL2429768, “Eco-friendly synthesis and antimicrobial activities of substituted-5-(1H-indol-3-yl)methylene)-2,2-dimethyl-1,3-dioxane-4,6-dione derivatives” (2013)
≈ marks a conversion by molar mass, not a printed value.

Experiments:
Assay type in all cases: functional
[1] = tested on: Aspergillus flavus; test: Antifungal activity against Aspergillus flavus after 72 hrs by agar well diffusion method
[2] = tested on: Bacillus subtilis; test: Antibacterial activity against Bacillus subtilis at 100 ug/ml after 24 hrs by agar well diffusion method; details: read-out: DIZ
[3] = tested on: Rhizoctonia solani; test: Antifungal activity against Rhizoctonia solani at 50 ug/ml after 72 hrs by agar well diffusion method; details: read-out: DIZ
[4] = tested on: Aspergillus flavus; test: Antifungal activity against Aspergillus flavus at 500 ug/ml after 72 hrs by agar well diffusion method; details: read-out: DIZ
[5] = tested on: Bacillus subtilis; test: Antibacterial activity against Bacillus subtilis after 24 hrs by agar well diffusion method
[6] = tested on: Aspergillus niger; test: Antifungal activity against Aspergillus niger at 200 ug/ml after 72 hrs by agar well diffusion method; details: read-out: DIZ
[7] = tested on: Aspergillus niger; test: Antifungal activity against Aspergillus niger at 50 ug/ml after 72 hrs by agar well diffusion method; details: read-out: DIZ
[8] = tested on: Bacillus subtilis; test: Antibacterial activity against Bacillus subtilis at 200 ug/ml after 24 hrs by agar well diffusion method; details: read-out: DIZ
[9] = tested on: Klebsiella pneumoniae; test: Antibacterial activity against Klebsiella pneumoniae at 500 ug/ml after 24 hrs by agar well diffusion method; details: read-out: DIZ
[10] = tested on: Aspergillus flavus; test: Antifungal activity against Aspergillus flavus at 50 ug/ml after 72 hrs by agar well diffusion method; details: read-out: DIZ
[11] = tested on: Staphylococcus aureus; test: Antibacterial activity against Staphylococcus aureus ATCC 6538 at 50 ug/ml after 24 hrs by agar well diffusion method; details: ATCC 6538, 24 h, read-out: DIZ
[12] = tested on: Aspergillus niger; test: Antifungal activity against Aspergillus niger after 72 hrs by agar well diffusion method
[13] = tested on: Escherichia coli; test: Antibacterial activity against Escherichia coli ATCC 8739 at 500 ug/ml after 24 hrs by agar well diffusion method; details: ATCC 8739, 24 h, read-out: DIZ
[14] = tested on: Staphylococcus aureus; test: Antibacterial activity against Staphylococcus aureus ATCC 6538 after 24 hrs by agar well diffusion method; details: ATCC 6538, 24 h
[15] = tested on: Fusarium oxysporum; test: Antifungal activity against Fusarium oxysporum at 200 ug/ml after 72 hrs by agar well diffusion method; details: read-out: DIZ
[16] = tested on: Aspergillus niger; test: Antifungal activity against Aspergillus niger at 500 ug/ml after 72 hrs by agar well diffusion method; details: read-out: DIZ
[17] = tested on: Aspergillus flavus; test: Antifungal activity against Aspergillus flavus at 200 ug/ml after 72 hrs by agar well diffusion method; details: read-out: DIZ
[18] = tested on: Escherichia coli; test: Antibacterial activity against Escherichia coli ATCC 8739 at 300 ug/ml after 24 hrs by agar well diffusion method; details: ATCC 8739, 24 h, read-out: DIZ
[19] = tested on: Aspergillus niger; test: Antifungal activity against Aspergillus niger at 100 ug/ml after 72 hrs by agar well diffusion method; details: read-out: DIZ
[20] = tested on: Bacillus subtilis; test: Antibacterial activity against Bacillus subtilis at 500 ug/ml after 24 hrs by agar well diffusion method; details: read-out: DIZ
[21] = tested on: Klebsiella pneumoniae; test: Antibacterial activity against Klebsiella pneumoniae at 100 ug/ml after 24 hrs by agar well diffusion method; details: read-out: DIZ
[22] = tested on: Klebsiella pneumoniae; test: Antibacterial activity against Klebsiella pneumoniae at 200 ug/ml after 24 hrs by agar well diffusion method; details: read-out: DIZ
[23] = tested on: Staphylococcus aureus; test: Antibacterial activity against Staphylococcus aureus ATCC 6538 at 100 ug/ml after 24 hrs by agar well diffusion method; details: ATCC 6538, 24 h, read-out: DIZ
[24] = tested on: Fusarium oxysporum; test: Antifungal activity against Fusarium oxysporum at 100 ug/ml after 72 hrs by agar well diffusion method; details: read-out: DIZ
[25] = tested on: Escherichia coli; test: Antibacterial activity against Escherichia coli ATCC 8739 at 200 ug/ml after 24 hrs by agar well diffusion method; details: ATCC 8739, 24 h, read-out: DIZ
[26] = tested on: Rhizoctonia solani; test: Antifungal activity against Rhizoctonia solani at 500 ug/ml after 72 hrs by agar well diffusion method; details: read-out: DIZ
[27] = tested on: Staphylococcus aureus; test: Antibacterial activity against Staphylococcus aureus ATCC 6538 at 300 ug/ml after 24 hrs by agar well diffusion method; details: ATCC 6538, 24 h, read-out: DIZ
[28] = tested on: Rhizoctonia solani; test: Antifungal activity against Rhizoctonia solani at 300 ug/ml after 72 hrs by agar well diffusion method; details: read-out: DIZ
[29] = tested on: Rhizoctonia solani; test: Antifungal activity against Rhizoctonia solani after 72 hrs by agar well diffusion method
[30] = tested on: Klebsiella pneumoniae; test: Antibacterial activity against Klebsiella pneumoniae at 50 ug/ml after 24 hrs by agar well diffusion method; details: read-out: DIZ
[31] = tested on: Escherichia coli; test: Antibacterial activity against Escherichia coli ATCC 8739 at 100 ug/ml after 24 hrs by agar well diffusion method; details: ATCC 8739, 24 h, read-out: DIZ
[32] = tested on: Fusarium oxysporum; test: Antifungal activity against Fusarium oxysporum after 72 hrs by agar well diffusion method
[33] = tested on: Rhizoctonia solani; test: Antifungal activity against Rhizoctonia solani at 100 ug/ml after 72 hrs by agar well diffusion method; details: read-out: DIZ
[34] = tested on: Klebsiella pneumoniae; test: Antibacterial activity against Klebsiella pneumoniae at 300 ug/ml after 24 hrs by agar well diffusion method; details: read-out: DIZ
[35] = tested on: Staphylococcus aureus; test: Antibacterial activity against Staphylococcus aureus ATCC 6538 at 200 ug/ml after 24 hrs by agar well diffusion method; details: ATCC 6538, 24 h, read-out: DIZ
[36] = tested on: Klebsiella pneumoniae; test: Antibacterial activity against Klebsiella pneumoniae after 24 hrs by agar well diffusion method
[37] = tested on: Staphylococcus aureus; test: Antibacterial activity against Staphylococcus aureus ATCC 6538 at 500 ug/ml after 24 hrs by agar well diffusion method; details: ATCC 6538, 24 h, read-out: DIZ
[38] = tested on: Fusarium oxysporum; test: Antifungal activity against Fusarium oxysporum at 300 ug/ml after 72 hrs by agar well diffusion method; details: read-out: DIZ
[39] = tested on: Aspergillus niger; test: Antifungal activity against Aspergillus niger at 300 ug/ml after 72 hrs by agar well diffusion method; details: read-out: DIZ
[40] = tested on: Escherichia coli; test: Antibacterial activity against Escherichia coli ATCC 8739 after 24 hrs by agar well diffusion method; details: ATCC 8739, 24 h
[41] = tested on: Fusarium oxysporum; test: Antifungal activity against Fusarium oxysporum at 50 ug/ml after 72 hrs by agar well diffusion method; details: read-out: DIZ
[42] = tested on: Escherichia coli; test: Antibacterial activity against Escherichia coli ATCC 8739 at 50 ug/ml after 24 hrs by agar well diffusion method; details: ATCC 8739, 24 h, read-out: DIZ
[43] = tested on: Rhizoctonia solani; test: Antifungal activity against Rhizoctonia solani at 200 ug/ml after 72 hrs by agar well diffusion method; details: read-out: DIZ
[44] = tested on: Aspergillus flavus; test: Antifungal activity against Aspergillus flavus at 300 ug/ml after 72 hrs by agar well diffusion method; details: read-out: DIZ
[45] = tested on: Fusarium oxysporum; test: Antifungal activity against Fusarium oxysporum at 500 ug/ml after 72 hrs by agar well diffusion method; details: read-out: DIZ
[46] = tested on: Bacillus subtilis; test: Antibacterial activity against Bacillus subtilis at 300 ug/ml after 24 hrs by agar well diffusion method; details: read-out: DIZ
[47] = tested on: Bacillus subtilis; test: Antibacterial activity against Bacillus subtilis at 50 ug/ml after 24 hrs by agar well diffusion method; details: read-out: DIZ
[48] = tested on: Aspergillus flavus; test: Antifungal activity against Aspergillus flavus at 100 ug/ml after 72 hrs by agar well diffusion method; details: read-out: DIZ

CC1(C)OC(=O)C(=Cc2c[nH]c3ccc(Br)cc23)C(=O)O1
MIC [1]: 35 µg/mL (≈ 100 µM) | zone of inhibition at 100 µg/mL [2]: 11.5 mm | zone of inhibition at 50 µg/mL [3]: 10 mm | zone of inhibition at 500 µg/mL [4]: 24 mm | MIC [5]: 20 µg/mL (≈ 57.1 µM) | zone of inhibition at 200 µg/mL [6]: 15 mm | zone of inhibition at 50 µg/mL [7]: 7 mm | zone of inhibition at 200 µg/mL [8]: 13 mm | zone of inhibition at 500 µg/mL [9]: 34 mm | zone of inhibition at 50 µg/mL [10]: 5 mm | zone of inhibition at 50 µg/mL [11]: 8 mm | MIC [12]: 30 µg/mL (≈ 85.7 µM) | zone of inhibition at 500 µg/mL [13]: 32 mm | MIC [14]: 20 µg/mL (≈ 57.1 µM) | zone of inhibition at 200 µg/mL [15]: 17 mm | zone of inhibition at 500 µg/mL [16]: 26 mm | zone of inhibition at 200 µg/mL [17]: 13 mm | zone of inhibition at 300 µg/mL [18]: 23 mm | zone of inhibition at 100 µg/mL [19]: 11 mm | zone of inhibition at 500 µg/mL [20]: 25 mm | zone of inhibition at 100 µg/mL [21]: 16 mm | zone of inhibition at 200 µg/mL [22]: 20 mm | zone of inhibition at 100 µg/mL [23]: 12 mm | zone of inhibition at 100 µg/mL [24]: 14 mm | zone of inhibition at 200 µg/mL [25]: 16 mm | zone of inhibition at 500 µg/mL [26]: 32 mm | zone of inhibition at 300 µg/mL [27]: 19 mm | zone of inhibition at 300 µg/mL [28]: 24 mm | MIC [29]: 25 µg/mL (≈ 71.4 µM) | zone of inhibition at 50 µg/mL [30]: 11 mm | zone of inhibition at 100 µg/mL [31]: 15.5 mm | MIC [32]: 25 µg/mL (≈ 71.4 µM) | zone of inhibition at 100 µg/mL [33]: 15 mm | zone of inhibition at 300 µg/mL [34]: 25 mm | zone of inhibition at 200 µg/mL [35]: 15 mm | MIC [36]: 10 µg/mL (≈ 28.6 µM) | zone of inhibition at 500 µg/mL [37]: 27 mm | zone of inhibition at 300 µg/mL [38]: 21 mm | zone of inhibition at 300 µg/mL [39]: 19 mm | MIC [40]: 10 µg/mL (≈ 28.6 µM) | zone of inhibition at 50 µg/mL [41]: 10 mm | zone of inhibition at 50 µg/mL [42]: 10.4 mm | zone of inhibition at 200 µg/mL [43]: 19 mm | zone of inhibition at 300 µg/mL [44]: 17 mm | zone of inhibition at 500 µg/mL [45]: 31 mm | zone of inhibition at 300 µg/mL [46]: 17 mm | zone of inhibition at 50 µg/mL [47]: 7 mm | zone of inhibition at 100 µg/mL [48]: 10 mm
